Source: patent publication US8710224B2, “Heterocyclic compounds as CCR2B antagonists” (AstraZeneca AB, priority 2004, dated 2014)

Molecular target: T1, recombinant human CCR5 receptor (Homo sapiens, UniProt P51681)
T1 construct: expressed in transfected cells; host or cells: Chinese hamster ovary (CHO) cells; membranes
Test: Radioligand binding assay for inhibition of the binding of MIP-1α
Conditions: displacement of 0.1 nM iodinated MIP-1α; membranes of Chinese hamster ovary cells expressing CCR5
Description: Biological Assay for the Ability of Compounds to Inhibit the Binding of MIP-1α This ability is assessed using an in vitro radioligand binding assay. Membranes are prepared from Chinese hamster ovary cells which express the recombinant human CCR5 receptor. These membranes are incubated with 0.1 nM iodinated MIP-1α, scintillation proximity beads and various concentrations of the compounds of the invention in 96-well plates. The amount of iodinated MIP-1α bound to the receptor is then determined by scintillation counting.

T1 sequence (P51681 whole entry): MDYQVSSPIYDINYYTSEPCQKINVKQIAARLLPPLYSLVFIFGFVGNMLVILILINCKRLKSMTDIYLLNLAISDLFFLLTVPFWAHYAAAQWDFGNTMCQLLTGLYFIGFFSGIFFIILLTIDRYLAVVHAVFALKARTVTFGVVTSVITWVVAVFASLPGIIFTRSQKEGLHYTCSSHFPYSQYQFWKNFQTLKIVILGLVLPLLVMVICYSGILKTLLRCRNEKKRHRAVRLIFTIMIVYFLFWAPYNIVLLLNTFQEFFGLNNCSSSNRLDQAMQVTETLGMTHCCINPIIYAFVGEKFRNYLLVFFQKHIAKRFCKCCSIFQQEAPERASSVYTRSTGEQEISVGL

| SMILES | IC50 [µM] |
| --- | --- |
| CC(C)N1CCN[C@@H](C(=O)N2CCN(C(=O)Nc3ccc(Cl)c(C(F)(F)F)c3)CC2)C1 [Example 213, N-[4-chloro-3-(trifluoromethyl)phenyl]-4-{[(2R)-4-isopropylpiperazin-2-yl]carbonyl}piperazine-1-carboxamide] | < 10 |
| CC(C)N1CCO[C@@H](CN2CCN(C(=O)Nc3ccc(Cl)c(Cl)c3)CC2)C1 [Example 119, N-(3,4-dichlorophenyl)-4-{[(2S)-4-isopropylmorpholin-2-yl]methyl}piperazine-1-carboxamide] | < 10 |
| COCCN1CCC[C@@H](CN2CCN(C(=O)Nc3ccc(Cl)c(Cl)c3)CC2)C1 [Example 113, N-(3,4-dichlorophenyl)-4-{[(3S)-1-(2-methoxyethyl)piperidin-3-yl]methyl}piperazine-1-carboxamide] | < 10 |
| O=C(Nc1ccc(Cl)c(Cl)c1)N1CCN(C[C@@H]2CCCN(Cc3ccc(Cl)nc3)C2)CC1 [Example 256, 4-({(3R)-1-[(6-chloropyridin-3-yl)methyl]piperidin-3-yl}methyl)-N-(3,4-dichlorophenyl)piperazine-1-carboxamide] | < 10 |
| O=C(Nc1ccccc1)N1CCN(C[C@@H]2CCCN(CCc3c(Cl)cccc3Cl)C2)CC1 [Example 252, 4-[[(3R)-1-[2-(2,6-dichlorophenyl)ethyl]-3-piperidyl]methyl]-N-phenyl-piperazine-1-carboxamide] | < 10 |
| CC(C)N1CCN[C@@H](C(=O)N2CCN(C(=O)Nc3nc(C(F)(F)F)cs3)CC2)C1 [Example 290, 4-{[(2R)-4-Isopropylpiperazin-2-yl]carbonyl}-N-[4-(trifluoromethyl)-1,3-thiazol-2-yl]piperazine-1-carboxamide] | < 10 |
| O=C(Nc1ccc(F)c(Cl)c1)N1CCN(C[C@@H]2CCCN(C3CC3)C2)CC1 [Example 107, N-(3-chloro-4-fluorophenyl)-4-{[(3S)-1-cyclopropylpiperidin-3-yl]methyl}piperazine-1-carboxamide] | < 10 |
| CC(C)N1CCN[C@@H](C(=O)N2CCN(C(=O)Nc3cc(F)cc(C(F)(F)F)c3)CC2)C1 [Example 288, N-[3-Fluoro-5-(trifluoromethyl)phenyl]-4-{[(2R)-4-isopropylpiperazin-2-yl]carbonyl}piperazine-1-carboxamide] | < 10 |
| Cc1ccc(NC(=O)N2CCN(C[C@H]3CN(C(C)C)CCO3)CC2)cc1Cl [Example 187, N-(3-chloro-4-methylphenyl)-4-{[(2S)-4-isopropylmorpholin-2-yl]methyl}piperazine-1-carboxamide] | < 10 |
| O=C(Nc1ccc(Cl)c(Cl)c1)N1CCN(C(=O)[C@H]2CN(C3CCC(O)(c4ccccn4)CC3)CCN2)CC1 (stereo partly drawn) [Example 279, N-(3,4-Dichlorophenyl)-4-{[(2R)-4-(4-hydroxy-4-pyridin-2-ylcyclohexyl)piperazin-2-yl]carbonyl}piperazine-1-carboxamide] | < 10 |
| CS(=O)(=O)c1ccc(CCCN2CCC[C@@H](CN3CCN(C(=O)Nc4cccc(Cl)c4)CC3)C2)cc1 [Example 327, N-(3-Chlorophenyl)-4-[((3R)-1-{3-[4-(methylsulfonyl)phenyl]propyl}piperidin-3-yl)methyl]piperazine-1-carboxamide] | < 10 |
| CCN1CCN[C@@H](C(=O)N2CCN(C(=O)Nc3cccc(Cl)c3)CC2)C1 [Example 132, N-(3-Chlorophenyl)-4-{[(2R)-4-ethylpiperazin-2-yl]carbonyl}piperazine-1-carboxamide] | < 10 |
| COCCOc1ccc(CN2CCC[C@@H](CN3CCN(C(=O)Nc4ccc(Cl)c(Cl)c4)CC3)C2)cn1 [Example 258, N-(3,4-dichlorophenyl)-4-[((3R)-1-{[6-(2-methoxyethoxy)pyridin-3-yl]methyl}piperidin-3-yl)methyl]piperazine-1-carboxamide] | < 10 |
| CCN1CCC[C@@H](CN2CCN(C(=O)Nc3ccc(Cl)c(Cl)c3)CC2=O)C1 [Example 91, N-(3,4-dichlorophenyl)-4-{[(3R)-1-ethylpiperidin-3-yl]methyl}-3-oxopiperazine-1-carboxamide] | < 10 |
| CCN1CCN[C@@H](C(=O)N2CCN(C(=O)Nc3ccc(Cl)cc3)CC2)C1 [Example 131, N-(4-Chlorophenyl)-4-{[(2R)-4-ethylpiperazin-2-yl]carbonyl}piperazine-1-carboxamide] | < 10 |
| O=C(Nc1ccc(Cl)c(Cl)c1)N1CCN(C[C@@H]2CCCN(C3CCOCC3)C2)CC1 [Example 172, N-(3,4-Dichlorophenyl)-4-{[(3S)-1-(tetrahydro-2H-pyran-4-yl)piperidin-3-yl]methyl}piperazine-1-carboxamide] | < 10 |
| O=C(Nc1ccccc1)N1CCN(C[C@@H]2CCCN(CCc3ccc(F)cc3Cl)C2)CC1 [Example 251, 4-[[(3R)-1-[2-(2-chloro-4-fluoro-phenyl)ethyl]-3-piperidyl]methyl]-N-phenyl-piperazine-1-carboxamide] | < 10 |

| SMILES | IC50 [µM] |
| --- | --- |
| CCCC(C)N1CCN[C@@H](C(=O)N2CCN(C(=O)Nc3ccc(Cl)c(Cl)c3)CC2)C1 (stereo partly drawn) [Example 270, N-(3,4-dichlorophenyl)-4-{[(2R)-4-(1-methylbutyl)piperazin-2-yl]carbonyl}piperazine-1-carboxamide] | < 10 |
| O=C(Nc1ccc(Cl)c(Cl)c1)N1CCN(C[C@@H]2CCN([C@H]3CC[C@](O)(c4nccs4)CC3)C2)CC1 [Example 229, N-(3,4-dichlorophenyl)-4-({(3S)-1-[cis-4-hydroxy-4-(1,3-thiazol-2-yl)cyclohexyl]pyrrolidin-3-yl}methyl)piperazine-1-carboxamide] | < 10 |
| O=C(Nc1ccc(Cl)c(Cl)c1)N1CCN(C[C@@H]2CCCN(Cc3ccc(N4CCOCC4)nc3)C2)CC1 [Example 255, N-(3,4-dichlorophenyl)-4-[[(3R)-1-[(6-morpholin-4-ylpyridin-3-yl)methyl]-3-piperidyl]methyl]piperazine-1-carboxamide] | < 10 |
| O=C(Nc1ccc(Cl)c(Cl)c1)N1CCN(C(=O)[C@H]2CN(CC3CCOC3)CCN2)CC1 (stereo partly drawn) [Example 271, N-(3,4-dichlorophenyl)-4-{[(2R)-4-(tetrahydrofuran-3-ylmethyl)piperazin-2-yl]carbonyl}piperazine-1-carboxamide] | < 10 |
| C[C@H](CC1CCCC1)N1CCO[C@@H](CN2CCN(C(=O)Nc3ccc(F)c(Cl)c3)CC2)C1 [Example 234, N-(3-chloro-4-fluorophenyl)-4-({(2S)-4-[(1R)-2-cyclopentyl-1-methylethyl]morpholin-2-yl}methyl)piperazine-1-carboxamide] | < 10 |
| CCC(C)N1CCN[C@@H](C(=O)N2CCN(C(=O)Nc3ccc(Cl)c(Cl)c3)CC2)C1 (stereo partly drawn) [Example 220, 4-{[(2R)-4-sec-butylpiperazin-2-yl]carbonyl}-N-(3,4-dichlorophenyl)piperazine-1-carboxamide] | < 10 |
| O=C(Nc1ccc(Cl)cc1)N1CCN(C[C@@H]2CCCN(CCc3ccccc3)C2)CC1 [Example 181, N-(4-chlorophenyl)-4-{[(3R)-1-(2-phenylethyl)piperidin-3-yl]methyl} piperazine-1-carboxamide] | < 10 |
| O=C(Nc1cccc(C(F)(F)F)c1)N1CCN(C[C@@H]2CCCN(C3CC3)C2)CC1 [Example 109, 4-{[(3S)-1-cyclopropylpiperidin-3-yl]methyl}-N-[3-(trifluoromethyl)phenyl]piperazine-1-carboxamide] | < 10 |
| O=C(Nc1ccc(Cl)c(Cl)c1)N1CCN(C(=O)[C@H]2CN(CC3CC3)CCN2)CC1 [Example 268, 4-{[(2R)-4-(cyclopropylmethyl)piperazin-2-yl]carbonyl}-N-(3,4-dichlorophenyl)piperazine-1-carboxamide] | < 10 |
| O=C(Nc1ccc(C(F)(F)F)c(Cl)c1)N1CCN(C[C@@H]2CCCN(C3CC3)C2)CC1 [Example 106, N-[3-chloro-4-(trifluoromethyl)phenyl]-4-{[(3S)-1-cyclopropylpiperidin-3-yl]methyl}piperazine-1-carboxamide] | < 10 |
| CC(C1CC1)N1CCN[C@@H](C(=O)N2CCN(C(=O)Nc3ccc(Cl)c(Cl)c3)CC2)C1 (stereo partly drawn) [Example 281, 4-{[(2R)-4-(1-Cyclopropylethyl)piperazin-2-yl]carbonyl}-N-(3,4-dichlorophenyl)piperazine-1-carboxamide] | < 10 |
| O=C(Nc1ccc(C(F)(F)F)cc1)N1CCN(C[C@@H]2CCCN(C3CC3)C2)CC1 [Example 111, 4-{[(3S)-1-cyclopropylpiperidin-3-yl]methyl}-N-[4-(trifluoromethyl)phenyl]piperazine-1-carboxamide] | < 10 |
| O=C(Nc1ccc(Cl)c(Cl)c1)N1CCN(C[C@@H]2CCCN(Cc3cc[nH]n3)C2)CC1 [Example 34, N-(3,4-dichlorophenyl)-4-{[(3S)-1-(1H-pyrazol-3-ylmethyl)-piperidin-3-yl]methyl}piperazine-1-carboxamide] | < 10 |
| O=C(Nc1ccc(Cl)c(Cl)c1)N1CCN(C(=O)[C@H]2CN(C3CCC3)CCN2)CC1 [Example 275, 4-{[(2R)-4-Cyclobutylpiperazin-2-yl]carbonyl}-N-(3,4-dichlorophenyl)piperazine-1-carboxamide] | < 10 |
| O=C(Nc1ccc(Cl)c(Cl)c1)N1CCN(C(=O)C2CCN(C3CCC(O)(c4nccs4)CC3)C2)CC1 (stereo not drawn) [Example 148, N-(3,4-dichlorophenyl)-4-({1-[cis-4-hydroxy-4-(1,3-thiazol-2-yl)cyclohexyl]pyrrolidin-3-yl}carbonyl)piperazine-1-carboxamide] | < 10 |
| CN1CCN(C)C(CN2CCN(C(=O)Nc3ccc(Cl)c(Cl)c3)CC2)C1 (stereo not shown) [Example 209, 1-{[1,4-Dimethylpiperazin-3-yl]methyl}-N-(3,4-dichlorophenyl)piperazine-4-carboxamide] | < 10 |
| O=C(Nc1ccccc1)N1CCN(C[C@@H]2CCCN(CCc3ccc(Cl)c(Cl)c3)C2)CC1 [Example 253, 4-[[(3R)-1-[2-(3,4-dichlorophenyl)ethyl]-3-piperidyl]methyl]-N-phenyl piperazine-1-carboxamide] | < 10 |
